According to PubChem BioAssay AID248 (DTP/NCI, 2004):
Values joined by “and” are separate entries in the source; they are usually repeats but may differ in a detail not shown here. Identical values can stand only once. Toxic doses and inconclusive results are not listed.

Tested on: L1210 leukemia ip in BDF1 mice, survival T/C
Experiment: NCI In Vivo Anticancer Drug Screen. Data for tumor model L1210 Leukemia (intraperitoneal) in B6D2F1 (BDF1) mice
Conditions: endpoint: mean survival time, higher = longer survival
Method in brief: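 Read-out is survival time, reported as the treated-group measurement over the vehicle-control measurement.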

[1] = dose: 100.0 mg/kg/injection, schedule: Q04DX002 (ip), vehicle: saline with Tween-80
[2] = dose: 400.0 mg/kg/injection, schedule: Q04DX002 (ip), vehicle: saline with Tween-80
[3] = dose: 100.0 mg/kg/injection, schedule: Q01DX009 (ip), vehicle: saline with Tween-80
[4] = dose: 100.0 mg/kg/injection, schedule: Q04DX003 (ip), vehicle: saline with Tween-80
[5] = dose: 200.0 mg/kg/injection, schedule: Q04DX003 (ip), vehicle: saline with Tween-80
[6] = dose: 100.0 mg/kg/injection, schedule: Q04DX003 (ip), vehicle: Klucel (hydroxypropylcellulose) (HPC)
[7] = dose: 200.0 mg/kg/injection, schedule: Q04DX003 (ip), vehicle: Klucel (hydroxypropylcellulose) (HPC)
[8] = dose: 400.0 mg/kg/injection, schedule: Q04DX003 (ip), vehicle: Klucel (hydroxypropylcellulose) (HPC)
[9] = dose: 50.0 mg/kg/injection, schedule: Q01DX001 (ip), vehicle: carboxymethylcellulose (CMC)
[10] = dose: 100.0 mg/kg/injection, schedule: Q01DX001 (ip), vehicle: carboxymethylcellulose (CMC)
[11] = dose: 100.0 mg/kg/injection, schedule: Q01DX009 (ip), vehicle: Klucel (hydroxypropylcellulose) (HPC)
[12] = dose: 200.0 mg/kg/injection, schedule: Q01DX001 (ip), vehicle: carboxymethylcellulose (CMC)
[13] = dose: 200.0 mg/kg/injection, schedule: Q01DX009 (ip), vehicle: Klucel (hydroxypropylcellulose) (HPC)
[14] = dose: 400.0 mg/kg/injection, schedule: Q01DX001 (ip), vehicle: carboxymethylcellulose (CMC)
[15] = dose: 400.0 mg/kg/injection, schedule: Q01DX009 (ip), vehicle: Klucel (hydroxypropylcellulose) (HPC)
[16] = dose: 200.0 mg/kg/injection, schedule: Q01DX009 (ip), vehicle: saline with Tween-80
[17] = dose: 400.0 mg/kg/injection, schedule: Q01DX009 (ip), vehicle: saline with Tween-80
[18] = dose: 100.0 mg/kg/injection, schedule: Q01DX001 (ip), vehicle: saline
[19] = dose: 200.0 mg/kg/injection, schedule: Q01DX001 (ip), vehicle: saline
[20] = dose: 25.0 mg/kg/injection, schedule: Q01DX009 (ip), vehicle: saline
[21] = dose: 50.0 mg/kg/injection, schedule: Q01DX009 (ip), vehicle: saline
[22] = dose: 100.0 mg/kg/injection, schedule: Q04DX003 (ip), vehicle: saline
[23] = dose: 200.0 mg/kg/injection, schedule: Q04DX003 (ip), vehicle: saline
[24] = dose: 400.0 mg/kg/injection, schedule: Q04DX003 (ip), vehicle: saline
[25] = dose: 12.5 mg/kg/injection, schedule: Q04DX003 (ip), vehicle: saline with Tween-80
[26] = dose: 400.0 mg/kg/injection, schedule: Q04DX003 (ip), vehicle: saline with Tween-80

Structure (SMILES): O=[N+]([O-])C1CCC2CCC3CCCC1C32 (centres undefined)
- T/C (dose: 25.0 mg/kg/injection, schedule: Q04DX002 (ip), vehicle: saline with Tween-80): 97 % of control
- T/C (dose: 50.0 mg/kg/injection, schedule: Q04DX002 (ip), vehicle: saline with Tween-80): 91 % of control
- T/C [1]: 101 % of control and 102 % of control
- T/C [2]: 93 % of control

Structure (SMILES): CN(C)c1ccc(/C=N/NC(=O)c2cnc3ccccc3c2)cc1
- T/C [1]: 102 % of control
- T/C (dose: 200.0 mg/kg/injection, schedule: Q04DX002 (ip), vehicle: saline with Tween-80): 97 % of control
- T/C [2]: 94 % of control

Structure (SMILES): OC(C1CCCCN1)C12CC3CC(CC(C3)C1)C2 (centres undefined)
- T/C (dose: 50.0 mg/kg/injection, schedule: Q01DX009 (ip), vehicle: saline with Tween-80): 104 % of control
- T/C [3]: 98 % of control
- T/C [4]: 105 % of control
- T/C [5]: 95 % of control

Structure (SMILES): CC(=O)OCC1OC(OC(C)=O)C(OC(C)=O)C(OC(C)=O)C1OC(C)=O (centres undefined)
- T/C (dose: 100.0 mg/kg/injection, schedule: Q01DX001 (ip), vehicle: Klucel (hydroxypropylcellulose) (HPC)): 101 % of control
- T/C [6]: 97 % of control
- T/C (dose: 200.0 mg/kg/injection, schedule: Q01DX001 (ip), vehicle: Klucel (hydroxypropylcellulose) (HPC)): 94 % of control
- T/C [7]: 93 % of control
- T/C (dose: 400.0 mg/kg/injection, schedule: Q01DX001 (ip), vehicle: Klucel (hydroxypropylcellulose) (HPC)): 105 % of control
- T/C [8]: 102 % of control

Structure (SMILES): CC(C)(C)CC(C)(C)N
- T/C (dose: 12.5 mg/kg/injection, schedule: Q01DX001 (ip), vehicle: Klucel (hydroxypropylcellulose) (HPC)): 100 % of control
- T/C (dose: 25.0 mg/kg/injection, schedule: Q01DX001 (ip), vehicle: Klucel (hydroxypropylcellulose) (HPC)): 92 % of control
- T/C (dose: 50.0 mg/kg/injection, schedule: Q01DX001 (ip), vehicle: Klucel (hydroxypropylcellulose) (HPC)): 92 % of control

Structure (SMILES): O=C(OCc1ccccc1CN1CCCC1)c1ccc(Br)cc1
- T/C (dose: 100.0 mg/kg/injection, schedule: Q04DX002 (ip), vehicle: Klucel (hydroxypropylcellulose) (HPC)): 111 % of control
- T/C (dose: 200.0 mg/kg/injection, schedule: Q04DX002 (ip), vehicle: Klucel (hydroxypropylcellulose) (HPC)): 90 % of control
- T/C (dose: 400.0 mg/kg/injection, schedule: Q04DX002 (ip), vehicle: Klucel (hydroxypropylcellulose) (HPC)): 96 % of control

Structure (SMILES): COC1=C(NC(C)(C)C)C(=O)C(OC)=C(NC(C)(C)C)C1=O
- T/C [9]: 103 % of control
- T/C [10]: 97 % of control
- T/C [11]: 109 % of control
- T/C [6]: 98 % of control
- T/C [12]: 109 % of control
- T/C [13]: 95 % of control
- T/C [7]: 96 % of control
- T/C [14]: 109 % of control
- T/C [15]: 106 % of control
- T/C [8]: 100 % of control

Structure (SMILES): CC(C)c1ccc(C(=O)O)cc1S(=O)(=O)F
- T/C [3]: 95 % of control
- T/C [16]: 98 % of control

Structure (SMILES): COc1ccc([N+](=O)[O-])cc1C(F)(F)F
- T/C [3]: 96 % of control
- T/C [16]: 97 % of control
- T/C [17]: 93 % of control

Structure (SMILES): CCc1ccc(CCSCCc2ccc(CC)c[n+]2[O-])[n+]([O-])c1
- T/C [18]: 96 % of control
- T/C [19]: 100 % of control

Structure (SMILES): Brc1cscc1C1=CCCc2ccccc21
- T/C [6]: 106 % of control
- T/C [7]: 98 % of control
- T/C [8]: 101 % of control

Structure (SMILES): CCOC(=O)N(Cc1ccccc1)C1CC1
- T/C [20]: 95 % of control
- T/C (dose: 25.0 mg/kg/injection, schedule: Q04DX003 (ip), vehicle: saline): 104 % of control
- T/C [21]: 104 % of control
- T/C (dose: 100.0 mg/kg/injection, schedule: Q01DX009 (ip), vehicle: saline): 102 % of control
- T/C [22]: 104 % of control
- T/C (dose: 200.0 mg/kg/injection, schedule: Q01DX009 (ip), vehicle: saline): 98 % of control
- T/C [23]: 104 % of control
- T/C (dose: 400.0 mg/kg/injection, schedule: Q01DX009 (ip), vehicle: saline): 103 % of control
- T/C [24]: 102 % of control

Structure (SMILES): CCOC(=O)N/N=C/c1cccs1
- T/C [18]: 98 % of control
- T/C [19]: 96 % of control
- T/C (dose: 400.0 mg/kg/injection, schedule: Q01DX001 (ip), vehicle: saline): 98 % of control

Structure (SMILES): c1ccc(C(CN2CCCCC2)c2ccccc2)cc1
- T/C (dose: 44.0 mg/kg/injection, schedule: Q01DX Z (ip), vehicle: methylcellulose (MC)): 93 % of control
- T/C (dose: 66.0 mg/kg/injection, schedule: Q01DX Z (ip), vehicle: methylcellulose (MC)): 96 % of control
- T/C (dose: 100.0 mg/kg/injection, schedule: Q01DX Z (ip), vehicle: methylcellulose (MC)): 105 % of control

Structure (SMILES): CC[S][Hg][Cl]
- T/C (dose: 3.0 mg/kg/injection, schedule: Q01DX009 (ip), vehicle: saline with Tween-80): 92 % of control
- T/C (dose: 6.0 mg/kg/injection, schedule: Q01DX009 (ip), vehicle: saline with Tween-80): 101 % of control
- T/C [25]: 101 % of control

Structure (SMILES): CC1=C(Cl)C(=O)C(Cl)=C(Cl)C1=O
- T/C (dose: 75.0 mg/kg/injection, schedule: Q01DX001 (ip), vehicle: saline): 103 % of control

Structure (SMILES): O=c1[nH]cnc2c1ncn2CCCCCCl
- T/C [6]: 102 % of control

Structure (SMILES): O=C(N(CCc1ccc(O)cc1)Cc1ccc2c(c1)OCO2)C(F)(F)F
- T/C (dose: 100.0 mg/kg/injection, schedule: Q04DX003 (ip), vehicle: gum acacia): 91 % of control
- T/C (dose: 200.0 mg/kg/injection, schedule: Q04DX003 (ip), vehicle: gum acacia): 91 % of control
- T/C (dose: 400.0 mg/kg/injection, schedule: Q04DX003 (ip), vehicle: gum acacia): 88 % of control

Structure (SMILES): O=C1OC(c2ccc(Cl)cc2)=N/C1=C\c1ccc(Cl)cc1
- T/C [3]: 91 % of control
- T/C [16]: 94 % of control
- T/C [17]: 91 % of control

Structure (SMILES): CC(=O)OCC(CCC(C)C)=C(C)C
- T/C [3]: 98 % of control
- T/C [4]: 97 % of control
- T/C [16]: 98 % of control
- T/C [5]: 92 % of control
- T/C [17]: 102 % of control
- T/C [26]: 92 % of control

Structure (SMILES): OC(CC(O)(C(F)(F)Cl)C(F)(F)Cl)c1cccs1 (centres undefined)
- T/C [22]: 93 % of control
- T/C [23]: 95 % of control
- T/C [24]: 105 % of control

Structure (SMILES): Nc1nc([Se])c2ncn(C3CC(O)C(CO)O3)c2n1 (centres undefined)
- T/C (dose: 12.5 mg/kg/injection, schedule: Q01DX009 (ip), vehicle: saline): 196 % of control
- T/C (dose: 25.0 mg/kg/injection, schedule: Q01DX005 (ip), vehicle: saline): 150 % of control and 151 % of control
- T/C [20]: 171 % of control
- T/C (dose: 50.0 mg/kg/injection, schedule: Q01DX005 (ip), vehicle: saline): 123 % of control
- T/C [21]: 150 % of control

Structure (SMILES): O=c1ccnc([Se])[nH]1
- T/C [25]: 99 % of control
- T/C (dose: 25.0 mg/kg/injection, schedule: Q04DX003 (ip), vehicle: saline with Tween-80): 105 % of control
- T/C (dose: 50.0 mg/kg/injection, schedule: Q04DX003 (ip), vehicle: saline with Tween-80): 101 % of control
- T/C [4]: 92 % of control
- T/C [5]: 111 % of control
- T/C [26]: 101 % of control

Structure (SMILES): c1ccc(Nc2nnnn2C2CCCCC2)cc1
- T/C (dose: 100.0 mg/kg/injection, schedule: Q01DX001 (ip), vehicle: saline with Tween-80): 104 % of control
- T/C (dose: 200.0 mg/kg/injection, schedule: Q01DX001 (ip), vehicle: saline with Tween-80): 95 % of control
- T/C (dose: 400.0 mg/kg/injection, schedule: Q01DX001 (ip), vehicle: saline with Tween-80): 93 % of control

Structure (SMILES): CC/C(=N/N(C)C)c1ccccc1
- T/C [22]: 96 % of control
- T/C [23]: 93 % of control

Structure (SMILES): CCC(=O)c1ccc(OCC(CN2CCN(c3ccccc3OC)CC2)OC(C)=O)cc1 (centres undefined)
- T/C [4]: 97 % of control
- T/C [5]: 105 % of control
- T/C [26]: 100 % of control

Structure (SMILES): CN(C)c1ccc(CC2CCOC2=O)cc1 (centres undefined)
- T/C [9]: 102 % of control
- T/C [10]: 96 % of control
- T/C [12]: 96 % of control
- T/C [14]: 100 % of control

Structure (SMILES): O=COCCc1ccccc1
- T/C [11]: 102 % of control
- T/C [13]: 102 % of control
- T/C [15]: 97 % of control
